Here are results for 8 molecules from BindingDB's records for doi:10.1016/j.bmc.2007.07.016 (Waseda University, 2007).

Structures are written as SMILES. Where only a bound is given, the exact number is not on record here.

This assay has as its target T1, Ubiquitin carboxyl-terminal hydrolase isozyme L3 (Homo sapiens, UniProt P15374).
T1 sequence (P15374 whole entry): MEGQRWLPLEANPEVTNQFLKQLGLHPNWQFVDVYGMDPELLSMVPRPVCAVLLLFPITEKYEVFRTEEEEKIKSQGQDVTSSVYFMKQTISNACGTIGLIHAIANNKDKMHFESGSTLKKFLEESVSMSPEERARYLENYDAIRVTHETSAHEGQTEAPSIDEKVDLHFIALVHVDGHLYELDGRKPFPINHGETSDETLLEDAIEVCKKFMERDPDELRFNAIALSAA
Put plainly: Enzyme Inhibition Assay. To be noted: pH 7.8; 22 °C. The protocol:
Enzyme reactions were carried out on Costar 96-well black assay plates. After the reaction, AMC fluorescence (excitation wavelength: 355 nm, emission wavelength: 460 nm) was subsequently measured 40 times every 3 s with a Wallac 1420 multi-label counter. Initial velocities (from 0 to 30 s) were used for IC50 determination, using GraphPad Prism 4 software.
For the molecule `COc1ccc(C2C(C(=O)c3cccs3)C(=O)C(=O)N2c2nncs2)cc1` (stereo not drawn), it took 154 µM to reach half-maximal inhibition (IC50).

For the molecule `Cc1ccc(C(=O)C2C(=O)C(=O)N(Cc3ccccc3)C2c2cccnc2)o1` (stereo not drawn) [1-benzyl-3-hydroxy-4-[(5-methylfuran-2-yl)carbonyl]-5-(pyridin-3-yl)-2,5-dihydro-1H-pyrrol-2-one], the IC50 is 103 µM. This IC50 and that of the molecule before are within 1.5-fold of each other.

As for `COc1cccc(N(CC(=O)NC2CCCC2)S(=O)(=O)c2ccccc2)c1` [2-[benzene(3-methoxyphenyl)sulfonamido]-N-cyclopentylacetamide], the IC50 was greater than 386 µM.

The molecule `Nc1nc(CSc2nnc(-c3ccco3)n2-c2ccccc2)cs1` [4-({[5-(furan-2-yl)-4-phenyl-4H-1,2,4-triazol-3-yl]sulfanyl}methyl)-1,3-thiazol-2-amine] gave an IC50 greater than 387 µM.

`Cc1ccc(C(=O)C2C(=O)C(=O)N(Cc3cccnc3)C2c2ccc(F)cc2)o1` (stereo not drawn) [5-(4-fluorophenyl)-3-hydroxy-4-[(5-methylfuran-2-yl)carbonyl]-1-(pyridin-3-ylmethyl)-2,5-dihydro-1H-pyrrol-2-one] showed a half-inhibitory concentration (IC50) of 123 µM.

Consider `COc1ccc(S(=O)(=O)N(CC(=O)NC2CC2)c2ccc(C)cc2)cc1` [N-cyclopropyl-2-[(4-methoxybenzene)(4-methylphenyl)sulfonamido]acetamide], for which the IC50 was greater than 401 µM.

Molecule `COc1ccc(N(CC(=O)NC2CC2)S(=O)(=O)c2ccc(C)cc2)cc1` [N-cyclopropyl-2-[(4-methoxyphenyl)(4-methylbenzene)sulfonamido]acetamide] came in with an IC50 greater than 334 µM.

The molecule `CCS(=O)(=O)Nc1cccc(C2=NN(C(C)=O)C(c3cccs3)C2)c1` (stereo not drawn) [N-{3-[1-acetyl-5-(thiophen-2-yl)-4,5-dihydro-1H-pyrazol-3-yl]phenyl}ethane-1-sulfonamide] yielded an IC50 greater than 331 µM.
